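96-well plates; 48 h exposure; 5 concentrations. Endpoints by linear interpolation between flanking doses. Not reached: highest tested concentration assigned. Abbreviation: GI50, concentration required for 50% inhibition of growth.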 Activity calls are given as the source filed them. Rule as the data show it: active = GI50 up to about 1.1 µM and inactive = higher.
Columns and labels:
Assay in all cases: NCI anticancer screen, dose series, 48 h
NCI-H460 = system: NCI-H460
Hs-578T = system: Hs-578T
U-251 = system: U-251
M14 = system: M14
BT-549 = system: BT-549
SN12C = system: SN12C
DU-145 = system: DU-145
SK-MEL-5 = system: SK-MEL-5
MDA-MB-435 = system: MDA-MB-435
ACHN = system: ACHN
OVCAR-4 = system: OVCAR-4
IGROV-1 = system: IGROV-1
MCF7 = system: MCF7
PC-3 = system: PC-3
SF-295 = system: SF-295
NCI-H522 = system: NCI-H522
KM12 = system: KM12
OVCAR-3 = system: OVCAR-3
CAKI-1 = system: CAKI-1

Compound	GI50 (NCI-H460)	GI50 (Hs-578T)	GI50 (U-251)	GI50 (M14)	GI50 (BT-549)	GI50 (SN12C)	GI50 (DU-145)	GI50 (SK-MEL-5)	GI50 (MDA-MB-435)	GI50 (ACHN)	GI50 (OVCAR-4)	GI50 (IGROV-1)	GI50 (MCF7)	GI50 (PC-3)	GI50 (SF-295)	GI50 (NCI-H522)	GI50 (KM12)	GI50 (OVCAR-3)	GI50 (CAKI-1)
O=C(Cc1ccccc1)Nn1c(-c2ccccc2)nc2ccccc2c1=O	> 100 µM (inactive)	42.3 µM (inactive)	> 100 µM (inactive)	> 100 µM (inactive)	> 100 µM (inactive)	> 100 µM (inactive)	> 100 µM (inactive)	2.38 µM (inactive)	> 100 µM (inactive)	> 100 µM (inactive)	> 100 µM (inactive)	> 100 µM (inactive)	> 100 µM (inactive)	> 100 µM (inactive)	> 100 µM (inactive)	> 100 µM (inactive)	> 100 µM (inactive)	> 100 µM (inactive)	–
Cc1ccc(S(=O)(=O)NC(=O)NS(=O)(=O)O)cc1	> 100 µM (inactive)	> 100 µM (inactive)	> 100 µM (inactive)	> 100 µM (inactive)	> 100 µM (inactive)	> 100 µM (inactive)	> 100 µM (inactive)	> 100 µM (inactive)	–	> 100 µM (inactive)	> 100 µM (inactive)	> 100 µM (inactive)	> 100 µM (inactive)	> 100 µM (inactive)	–	> 100 µM (inactive)	> 100 µM (inactive)	–	–
CC(=O)N1C(Nc2ccccn2)CCN1c1ccccc1 (stereo not given)	> 10 µM (inactive)	> 10 µM (inactive)	–	> 10 µM (inactive)	> 10 µM (inactive)	> 10 µM (inactive)	> 10 µM (inactive)	> 10 µM (inactive)	> 10 µM (inactive)	7.36 µM (inactive)	> 10 µM (inactive)	> 10 µM (inactive)	> 10 µM (inactive)	> 10 µM (inactive)	> 10 µM (inactive)	> 10 µM (inactive)	–	> 10 µM (inactive)	> 10 µM (inactive)
CN(C)CCNC(=O)c1cccc2c1Oc1cccc([N+](=O)[O-])c1O2	17.3 µM (inactive)	18.4 µM (inactive)	21 µM (inactive)	16.2 µM (inactive)	13.3 µM (inactive)	23.3 µM (inactive)	17.7 µM (inactive)	19.1 µM (inactive)	16.5 µM (inactive)	18.7 µM (inactive)	–	18.9 µM (inactive)	19.1 µM (inactive)	15.4 µM (inactive)	17.5 µM (inactive)	16.1 µM (inactive)	22.8 µM (inactive)	20.8 µM (inactive)	18.4 µM (inactive)
COC1OC(CBr)C(OC(c2ccccc2)(c2ccccc2)c2ccccc2)C(OC(c2ccccc2)(c2ccccc2)c2ccccc2)C1OC(c1ccccc1)(c1ccccc1)c1ccccc1 (stereo not given)	46.1 µM (inactive)	34.9 µM (inactive)	–	51.8 µM (inactive)	56.9 µM (inactive)	41.3 µM (inactive)	76.2 µM (inactive)	66.5 µM (inactive)	> 100 µM (inactive)	45.9 µM (inactive)	18.3 µM (inactive)	78.2 µM (inactive)	41.7 µM (inactive)	–	42 µM (inactive)	16 µM (inactive)	> 100 µM (inactive)	14.1 µM (inactive)	> 100 µM (inactive)
Cc1ccc([N+](=O)[O-])cc1S(=O)(=O)Nc1ccc(C2=NN(C(=O)c3ccccc3)C(c3cccs3)C2)cc1 (stereo not given)	–	27 µM (inactive)	20.8 µM (inactive)	24.1 µM (inactive)	25.3 µM (inactive)	22.4 µM (inactive)	34.2 µM (inactive)	13.6 µM (inactive)	33.1 µM (inactive)	25.4 µM (inactive)	25.6 µM (inactive)	16.9 µM (inactive)	18.1 µM (inactive)	21.9 µM (inactive)	21 µM (inactive)	12.9 µM (inactive)	32.7 µM (inactive)	13 µM (inactive)	26.2 µM (inactive)
NC1OC(COC(=O)c2ccccc2)C(O)C(OC(=O)c2ccccc2)C1OC(=O)c1ccccc1 (stereo not given)	11.4 µM (inactive)	15.1 µM (inactive)	17.7 µM (inactive)	24.3 µM (inactive)	20.7 µM (inactive)	24.3 µM (inactive)	40.1 µM (inactive)	14.4 µM (inactive)	21.7 µM (inactive)	19.3 µM (inactive)	35.5 µM (inactive)	16.9 µM (inactive)	23.9 µM (inactive)	19.7 µM (inactive)	17.2 µM (inactive)	23.9 µM (inactive)	–	25.2 µM (inactive)	–
CC(NC(=O)C(C)C(=O)NCc1ccc(C(F)(F)F)cc1)C(N)=O (stereo not given)	> 100 µM (inactive)	> 100 µM (inactive)	> 100 µM (inactive)	> 100 µM (inactive)	84.7 µM (inactive)	> 100 µM (inactive)	> 100 µM (inactive)	> 100 µM (inactive)	> 100 µM (inactive)	> 100 µM (inactive)	–	> 100 µM (inactive)	> 100 µM (inactive)	> 100 µM (inactive)	> 100 µM (inactive)	34.9 µM (inactive)	> 100 µM (inactive)	–	> 100 µM (inactive)
CC(=O)OC1C(C)OC(OC(=O)C2CCC3C(C2)OC2(CC(OC(=O)/C=C/c4ccccc4)C(C)CO2)C32CO2)C(OC2OC(C)C(O)C(OC(C)=O)C2O)C1O (stereo not given)	< 0.01 µM (active)	< 0.01 µM (active)	< 0.01 µM (active)	< 0.01 µM (active)	< 0.01 µM (active)	< 0.01 µM (active)	< 0.01 µM (active)	< 0.01 µM (active)	< 0.01 µM (active)	< 0.0421 µM (active)	< 0.01 µM (active)	< 0.01 µM (active)	< 0.01 µM (active)	< 0.01 µM (active)	< 0.01 µM (active)	< 0.01 µM (active)	< 0.01 µM (active)	< 0.01 µM (active)	0.245 µM (active)
CCOC(=O)C(Br)(C(N)=O)C1(O)OC(c2ccccc2)=C(Br)C1=O (stereo not given)	> 100 µM (inactive)	50.7 µM (inactive)	17.6 µM (inactive)	28.4 µM (inactive)	19.2 µM (inactive)	17.2 µM (inactive)	44.6 µM (inactive)	22.6 µM (inactive)	30.5 µM (inactive)	17.5 µM (inactive)	–	20.5 µM (inactive)	19.2 µM (inactive)	19.2 µM (inactive)	> 100 µM (inactive)	3.42 µM (inactive)	> 100 µM (inactive)	25.8 µM (inactive)	19.6 µM (inactive)
Cc1ccc(-n2cc([Si](C)(C)C)nn2)s1	> 100 µM (inactive)	> 100 µM (inactive)	> 100 µM (inactive)	> 100 µM (inactive)	> 100 µM (inactive)	> 100 µM (inactive)	> 100 µM (inactive)	45.4 µM (inactive)	> 100 µM (inactive)	> 100 µM (inactive)	> 100 µM (inactive)	–	> 100 µM (inactive)	97.5 µM (inactive)	> 100 µM (inactive)	> 100 µM (inactive)	–	> 100 µM (inactive)	> 100 µM (inactive)
O=C(O)CCCc1ccc2c(c1)C(C(=O)O)CC2 (stereo not given)	> 100 µM (inactive)	> 100 µM (inactive)	> 100 µM (inactive)	> 100 µM (inactive)	76 µM (inactive)	> 100 µM (inactive)	> 100 µM (inactive)	> 100 µM (inactive)	–	> 100 µM (inactive)	> 100 µM (inactive)	> 100 µM (inactive)	> 100 µM (inactive)	> 100 µM (inactive)	> 100 µM (inactive)	> 100 µM (inactive)	> 100 µM (inactive)	–	> 100 µM (inactive)
O=c1cc(N2CCCC2)[nH]c(=O)n1-c1cccc(Cl)c1	> 100 µM (inactive)	> 100 µM (inactive)	> 100 µM (inactive)	> 100 µM (inactive)	> 100 µM (inactive)	> 100 µM (inactive)	> 100 µM (inactive)	–	> 100 µM (inactive)	> 100 µM (inactive)	> 100 µM (inactive)	> 100 µM (inactive)	> 100 µM (inactive)	> 100 µM (inactive)	> 100 µM (inactive)	> 100 µM (inactive)	> 100 µM (inactive)	> 100 µM (inactive)	> 100 µM (inactive)
O=C(Nc1c(Cl)cc([N+](=O)[O-])cc1Cl)C(=O)C1C(=O)NC(=S)NC1=O	> 100 µM (inactive)	> 100 µM (inactive)	> 100 µM (inactive)	> 100 µM (inactive)	> 100 µM (inactive)	> 100 µM (inactive)	–	> 100 µM (inactive)	> 100 µM (inactive)	> 100 µM (inactive)	> 100 µM (inactive)	> 100 µM (inactive)	> 100 µM (inactive)	> 100 µM (inactive)	> 100 µM (inactive)	> 100 µM (inactive)	> 100 µM (inactive)	> 100 µM (inactive)	> 100 µM (inactive)
CC(=O)Oc1ccc(C)c2c1[C@H]1CC[C@]3(C)[C@@H](OC(C)=O)CC[C@H]3[C@@H]1CC2	20 µM (inactive)	23 µM (inactive)	15.2 µM (inactive)	17.5 µM (inactive)	17.5 µM (inactive)	18.8 µM (inactive)	26.9 µM (inactive)	19.5 µM (inactive)	17.9 µM (inactive)	16.2 µM (inactive)	–	18.7 µM (inactive)	23.6 µM (inactive)	–	23.9 µM (inactive)	17.7 µM (inactive)	18.6 µM (inactive)	18.2 µM (inactive)	–
